Results taken from ChEMBL document CHEMBL4152291, “Synthesis and biological activities of dithiocarbamates containing 2(5H)-furanone-piperazine” (Eur J Med Chem, 2018).

What was measured:
[1] = Growth inhibition of human LO2 cells at 2.5 ug/ml after 72 hrs by MTT assay relative to control; format: cell-based, L02; settings: read-out: GI
[2] = Growth inhibition of human LO2 cells at 0.01 ug/ml after 72 hrs by MTT assay relative to control; format: cell-based, L02; settings: read-out: GI
[3] = Growth inhibition of human LO2 cells at 0.5 ug/ml after 72 hrs by MTT assay relative to control; format: cell-based, L02; settings: read-out: GI
HeLa [4] = test: Cytotoxicity against human HeLa cells; format: functional, cell-based
SMMC-7721 [5] = test: Growth inhibition of human SMMC7721 cells at 5 ug/ml after 72 hrs by MTT assay relative to control; format: functional; settings: SMMC-7721, 72 h, read-out: GI
SMMC-7721 [6] = test: Growth inhibition of human SMMC7721 cells at 0.5 ug/ml after 72 hrs by MTT assay relative to control; format: functional; settings: SMMC-7721, 72 h, read-out: GI
SMMC-7721 [7] = test: Growth inhibition of human SMMC7721 cells at 0.1 ug/ml after 72 hrs by MTT assay relative to control; format: functional; settings: SMMC-7721, 72 h, read-out: GI
SMMC-7721 [8] = test: Growth inhibition of human SMMC7721 cells at 2.5 ug/ml after 72 hrs by MTT assay relative to control; format: functional; settings: SMMC-7721, 72 h, read-out: GI
SMMC-7721 [9] = test: Growth inhibition of human SMMC7721 cells at 0.01 ug/ml after 72 hrs by MTT assay relative to control; format: functional; settings: SMMC-7721, 72 h, read-out: GI
[10] = Growth inhibition of human LO2 cells at 5 ug/ml after 72 hrs by MTT assay relative to control; format: cell-based, L02; settings: read-out: GI
[11] = Growth inhibition of human LO2 cells at 0.1 ug/ml after 72 hrs by MTT assay relative to control; format: cell-based, L02; settings: read-out: GI
HeLa [12] = test: Growth inhibition of human HeLa cells at 25 ug/ml after 72 hrs by MTT assay relative to control; format: functional; settings: read-out: GI
HeLa [13] = test: Growth inhibition of human HeLa cells at 12.5 ug/ml after 72 hrs by MTT assay relative to control; format: functional; settings: read-out: GI
HeLa [14] = test: Growth inhibition of human HeLa cells at 50 ug/ml after 72 hrs by MTT assay relative to control; format: functional; settings: read-out: GI
HeLa [15] = test: Growth inhibition of human HeLa cells at 6.25 ug/ml after 72 hrs by MTT assay relative to control; format: functional; settings: read-out: GI
L02 = test: Cytotoxicity against human LO2 cells assessed as inhibition of cell proliferation after 72 hrs by MTT assay; format: cell-based; settings: L02, 72 h
HeLa [16] = test: Cytotoxicity against human HeLa cells assessed as inhibition of cell proliferation after 72 hrs by MTT assay; format: functional, cell-based
HeLa [17] = test: Growth inhibition of human HeLa cells at 100 ug/ml after 72 hrs by MTT assay relative to control; format: functional; settings: read-out: GI
SMMC-7721 [18] = test: Induction of apoptosis in human SMMC7721 cells assessed as live cells at 5 ug/ml after 72 hrs by Annexin-V-FITC/propidium iodide staining based flow cytometry (reference value: 92.87 to 93.39%); format: functional
SMMC-7721 [19] = test: Induction of apoptosis in human SMMC7721 cells assessed as late apoptotic cells at 0.1 ug/ml after 72 hrs by Annexin-V-FITC/propidium iodide staining based flow cytometry (reference value: 3.34 to 3.62%); format: functional
SMMC-7721 [20] = test: Induction of apoptosis in human SMMC7721 cells assessed as live cells at 0.5 ug/ml after 72 hrs by Annexin-V-FITC/propidium iodide staining based flow cytometry (reference value: 92.87 to 93.39%); format: functional
SMMC-7721 [21] = test: Induction of apoptosis in human SMMC7721 cells assessed as late apoptotic cells at 0.5 ug/ml after 72 hrs by Annexin-V-FITC/propidium iodide staining based flow cytometry (reference value: 3.34 to 3.62%); format: functional
SMMC-7721 [22] = test: Induction of apoptosis in human SMMC7721 cells assessed as necrotic cells at 0.5 ug/ml after 72 hrs by Annexin-V-FITC/propidium iodide staining based flow cytometry (reference value: 0.39 to 0.5%); format: functional
SMMC-7721 [23] = test: Induction of apoptosis in human SMMC7721 cells assessed as necrotic cells at 0.1 ug/ml after 72 hrs by Annexin-V-FITC/propidium iodide staining based flow cytometry (reference value: 0.39 to 0.5%); format: functional
SMMC-7721 [24] = test: Induction of apoptosis in human SMMC7721 cells assessed as live cells at 0.1 ug/ml after 72 hrs by Annexin-V-FITC/propidium iodide staining based flow cytometry (reference value: 92.87 to 93.39%); format: functional
SMMC-7721 [25] = test: Induction of apoptosis in human SMMC7721 cells assessed as increase in late apoptotic cells after 72 hrs by Annexin-V-FITC/propidium iodide staining based flow cytometry; format: functional, cell-based
SMMC-7721 [26] = test: Induction of apoptosis in human SMMC7721 cells assessed as necrotic cells at 5 ug/ml after 72 hrs by Annexin-V-FITC/propidium iodide staining based flow cytometry (reference value: 0.39 to 0.5%); format: functional
SMMC-7721 [27] = test: Induction of apoptosis in human SMMC7721 cells assessed as late apoptotic cells at 5 ug/ml after 72 hrs by Annexin-V-FITC/propidium iodide staining based flow cytometry (reference value: 3.34 to 3.62%); format: functional
SMMC-7721 [28] = test: Induction of apoptosis in human SMMC7721 cells assessed as increase in early apoptotic cells after 72 hrs by Annexin-V-FITC/propidium iodide staining based flow cytometry; format: functional, cell-based
SMMC-7721 [29] = test: Induction of apoptosis in human SMMC7721 cells assessed as early apoptotic cells at 0.1 ug/ml after 72 hrs by Annexin-V-FITC/propidium iodide staining based flow cytometry (reference value: 2.61 to 3.3%); format: functional
SMMC-7721 [30] = test: Induction of apoptosis in human SMMC7721 cells assessed as early apoptotic cells at 5 ug/ml after 72 hrs by Annexin-V-FITC/propidium iodide staining based flow cytometry (reference value: 2.61 to 3.3%); format: functional
SMMC-7721 [31] = test: Induction of apoptosis in human SMMC7721 cells assessed as early apoptotic cells at 0.5 ug/ml after 72 hrs by Annexin-V-FITC/propidium iodide staining based flow cytometry (reference value: 2.61 to 3.3%); format: functional

SMILES	inhibition at 72 h, 2.5 ug/ml [1] [%]	inhibition at 72 h, 0.01 ug/ml [2] [%]	inhibition at 72 h, 0.5 ug/ml [3] [%]	inhibition of growth at 5 µg/mL (SMMC-7721 [5]) [%]	inhibition of growth at 0.5 µg/mL (SMMC-7721 [6]) [%]	inhibition of growth at 0.1 µg/mL (SMMC-7721 [7]) [%]	inhibition of growth at 2.5 µg/mL (SMMC-7721 [8]) [%]	inhibition of growth at 0.01 µg/mL (SMMC-7721 [9]) [%]	inhibition at 72 h, 5 ug/ml [10] [%]	inhibition at 72 h, 0.1 ug/ml [11] [%]	inhibition of growth at 25 µg/mL (HeLa [12]) [%]	inhibition of growth at 12.5 µg/mL (HeLa [13]) [%]	inhibition of growth at 50 µg/mL (HeLa [14]) [%]	inhibition of growth at 6.25 µg/mL (HeLa [15]) [%]	Activity (HeLa [16])	IC50 (HeLa [16]) [nM]	inhibition of growth at 100 µg/mL (HeLa [17]) [%]	further results
Nc1ccn([C@@H]2O[C@H](CO)[C@@H](O)[C@@H]2O)c(=O)n1 [CYTARABINE]	18.8	-1.76	13.3	63.1	24	16.1	44.5	13	25.4	3.02	–	–	–	–	–	–	–	IC50 (HeLa [4]): 950 nM
C=CCSC(=S)N1CCN(C2=C(Br)C(=O)O[C@@H]2O[C@@H]2C[C@H](C)CC[C@H]2C(C)C)CC1	11.2	-1.9	9.79	67.4	21	17	40.7	7.87	12.9	5.21	41.7	44.5	53.8	45.6	Dose-dependent effect	60	57.4	IC50 (L02): 45800 nM
COC(=O)CSC(=S)N1CCN(C2=C(Br)C(=O)O[C@@H]2O[C@@H]2C[C@H](C)CC[C@H]2C(C)C)CC1	15	0.87	11.1	64.5	21.4	9.68	40.1	4.41	26.6	6.98	11.3	10.9	35.3	8.57	Dose-dependent effect	320	36.9	–
CC[C@]1(O)C[C@H]2CN(CCc3c([nH]c4ccccc34)[C@@](C(=O)OC)(c3cc4c(cc3OC)N(C=O)[C@H]3[C@@](O)(C(=O)OC)[C@H](OC(C)=O)[C@]5(CC)C=CCN6CC[C@]43[C@@H]65)C2)C1 [VINCRISTINE]	11.5	1.6	7.26	68.5	23.9	17.7	45.7	12.3	16.5	1.39	–	–	–	–	–	–	–	–
CC(C)[C@@H]1CC[C@@H](C)C[C@H]1O[C@H]1OC(=O)C(Br)=C1N1CCN(C(=S)SCc2ccccc2)CC1	15.6	-3.31	15	75	20.9	17	39.2	9.09	25.8	7.48	43.5	37.5	46.4	32	Dose-dependent effect	260	45	Activity (SMMC-7721 [18]): 64.53 - 65.54%; Activity (SMMC-7721 [19]): 5.56 - 7.39%; Activity (SMMC-7721 [20]): 81.84 - 83.6%; Activity (SMMC-7721 [21]): 8.98 - 11.36%; Activity (SMMC-7721 [22]): 2.17 - 4.01%; Activity (SMMC-7721 [23]): 1.29 - 4.56%; Activity (SMMC-7721 [24]): 85.91 - 89.74%; Activity (SMMC-7721 [25]): Dose-dependent effect; Activity (SMMC-7721 [26]): 7.72 - 9.59%; Activity (SMMC-7721 [27]): 18.99 - 20.66%; Activity (SMMC-7721 [28]): Dose-dependent effect; Activity (SMMC-7721 [29]): 2.75 - 3.41%; Activity (SMMC-7721 [30]): 6.06 - 6.14%; Activity (SMMC-7721 [31]): 4.01 - 5.07%
